# From PubChem BioAssay AID489006 (Sanford-Burnham Center for Chemical Genomics, 2010)
# pIC50: −log10 of the molar value. Active and inactive are the calls of the source. The rule behind the calls is not given here.
# Test system: Jurkat NF-kB reporter, luminescence
# Test: NF-kB reporter inhibition in Jurkat cells, dose response, selectivity assay for B-cell receptor NF-kB inhibitor project, cell-based, luminescence (AID 489006)
SMILES,pIC50,IC50
CC1CC(C)(C)Nc2ccc(OC(=O)c3ccco3)cc21 (stereo not given),5.50,
N=c1c2c(n(Cc3cccc(Cl)c3)c3c1CCC3)CCCC2,,27.6 µM (inactive)
Cc1nc2cc(-c3ccc(Cl)cc3)nn2c(C)c1CCC(=O)NCc1ccco1,6.47,
CCC(C)(C)c1ccc(OCCCC[n+]2ccccc2)c(C(C)(C)CC)c1,5.24,
O=C(Nc1cccc(S(=O)(=O)Nc2ccc(Cl)cc2)c1)c1ccc(Cl)nc1,,25.7 µM (inactive)
Cc1cccn2c(=O)c3cc(C(=O)NC4CCCCC4)c(=N)n(CCN4CCOCC4)c3nc12,,> 80 µM (inactive)
Cc1cc(C)cc(NC(=O)Nc2ccc(NC(=O)c3ccccc3O)cc2)c1,,> 80 µM (inactive)
CCOc1ccc(S(=O)(=O)NCc2ccncc2)cc1NC(=O)c1ccccc1,,> 80 µM (inactive)
CCOc1ccc(-c2cc(CCCC(=O)NCc3ccc(C)cc3)no2)cc1,5.18,
COc1ccc(C(C(=O)NC2CCCCC2)N(C(=O)CCl)c2ccc(Cl)cc2)cc1 (stereo not given),6.33,
O=C(CCl)N1CCN(S(=O)(=O)c2ccc3c(c2)CCC3)CC1,5.67,
CCOc1ccc(-c2nnc(SCC(=O)NC3CC3)o2)cc1,,54.2 µM (inactive)
CCn1c(=O)cc(SCC(=O)N2CCCCC2)c2ccccc21,,> 80 µM (inactive)
CCOCCCNc1nc2c(C)cccn2c(=O)c1/C=C1\SC(=S)N(C(C)CC)C1=O (stereo not given),,> 80 µM (inactive)
COc1ccc(/C=C/c2ccccc2)cc1[C@H]1[C@H]2C=CC[C@@H](C)[C@@H]2C(=O)N1Cc1ccccc1,,> 80 µM (inactive)
CCOc1ccc(-n2c(SCC(=O)Nc3ccc4c(c3)OCCO4)nc3c(c2=O)SCC3)cc1,,> 80 µM (inactive)
CC1(c2nnc(-c3cccc(Cl)c3)o2)CC(c2cccc(Cl)c2)=NO1 (stereo not given),,> 80 µM (inactive)
Cc1ccc(S(=O)(=O)Nc2ccc3c(c2)n(C)c(=O)n3C)cc1,,73 µM (inactive)
Cc1ccc(C(=O)N2CCCC(c3ccc(Cl)cc3)=N2)cc1,,> 80 µM (inactive)
CCN(CC)CCOC(=O)c1ccc(NC(=O)CCCN2C(=O)S/C(=C/c3ccc(OC)cc3)C2=S)cc1,5.83,
CN(C)S(=O)(=O)c1ccc(NC(=O)N2CCN(c3ccccc3)CC2)cc1,,> 80 µM (inactive)
COc1ccc(/C=C2\SC(=S)N(CCCC(=O)NNC(=O)c3ccccc3O)C2=O)cc1,6.24,
COc1ccc2nc(Sc3c([N+](=O)[O-])nc(C)n3Cc3ccccc3)[nH]c2c1,4.91,
COc1cc(C2C(C#N)=C(N)Oc3cc(N)ccc32)cc(OC)c1OC (stereo not given),,> 80 µM (inactive)

SMILES,pIC50,IC50
CC(C)c1ccc(/C=C2\SC(=S)N(CCC(=O)N3CCCCC3CCO)C2=O)cc1 (stereo not given),6.48,
COCCCNC(=O)COc1ccc(-c2nccc(-c3ccccn3)n2)cc1,5.06,
CCN(CC(=O)Nc1c(F)cccc1F)C(=O)C1(c2ccccc2)CC1,,> 80 µM (inactive)
CC(C)(C)c1ccc(-c2nnc(SCC(=O)NC3CC3)o2)cc1,,> 80 µM (inactive)
CCOc1ccc(-c2c[n+]3c(n2-c2ccccc2)CCCCC3)cc1,,> 80 µM (inactive)
Cc1ccc(C2(c3ccc(C)cc3)CC2C(=O)Nc2ccc([N+](=O)[O-])cc2O)cc1 (stereo not given),,50.1 µM (inactive)
CCOc1ccc(-c2nc(CSCC(=O)NC3CC3)c(C)o2)cc1,,> 80 µM (inactive)
COc1ccc(C(=O)N/N=C/c2sc(N3CCOCC3)nc2-c2ccccc2)cc1OC,,35.5 µM (inactive)
Cn1c(=O)cc(OCCCC(=O)NC2CCCC2)c2ccccc21,,39.5 µM (inactive)
Cc1nc2cc(-c3cccc(F)c3)nn2c(C)c1CCC(=O)N1CCC2(CC1)OCCO2,,20.7 µM (inactive)
CCc1ccc(/C=C2\SC(=S)N(CCC(=O)NC3=NCCS3)C2=O)cc1,5.89,
Cc1ccc(-n2c(-c3ccccc3)c[n+]3c2CCc2ccccc2-3)c(C)c1,4.90,
CCOC(=O)C1CCN(c2ncnc3c2cnn3-c2ccc(OC)cc2)CC1,,> 80 µM (inactive)
CCn1c(=O)c2cc(C(=O)NCc3cccs3)sc2c2ccccc21,,> 80 µM (inactive)
COc1ccc(NS(=O)(=O)c2ccc(-c3coc(C)n3)cc2)cc1OC,,> 80 µM (inactive)
CC(=C\c1ccccc1)/C=C1/SC(=O)N(CCCC(=O)Nc2ccc(C(=O)O)cc2)C1=O,,> 80 µM (inactive)
CCc1ccc(/C=C2\SC(=S)N(CCCC(=O)Nc3ccccn3)C2=O)cc1,5.80,
COc1ccc(/C=C2\SC(=S)N(CCC(=O)Nc3ccc(O)cc3)C2=O)cc1,,> 80 µM (inactive)
Cc1ccc(-c2cn(-c3ccccc3)c3[n+]2CCCS3)cc1,,> 80 µM (inactive)
CC(C)(C)C(=O)/C(=C/c1ccncc1)n1cncn1,5.54,
Cc1ccc(O)c(NC(=O)COc2cc(C)ccc2C)c1,,> 80 µM (inactive)
CSc1ccc(-c2nc(CSCC(=O)NC3CC3)c(C)o2)cc1,,> 80 µM (inactive)
CC(C)Cn1c([N+](=O)[O-])nc2c1c(=O)[nH]c(=O)n2C,5.14,
COC(=O)c1c(-c2ccc(N(C)C)cc2)sc2ccc(OC)cc12,,> 80 µM (inactive)

SMILES,pIC50,IC50
CCOc1ccc(-c2cc(CCCC(=O)NCc3ccco3)no2)cc1,,> 80 µM (inactive)
CCOc1cc2nc(-c3ccc(OC)c(OC)c3)nc(N3CCOCC3)c2cc1OC,,45.8 µM (inactive)
Cc1ccc(/C=C2/SC(=S)N(CCCC(=O)Nc3ccc(O)cc3)C2=O)cc1,4.70,
O=C(CCCN1C(=O)S/C(=C\c2ccccc2)C1=O)NNC(=O)c1ccccc1O,5.97,
C/C=C(/C)C(=O)OC1Cc2c(ccc3ccc(=O)oc23)OC1(C)C (stereo not given),,> 80 µM (inactive)
COc1ccc(-c2ccc(C)cc2)cc1[C@H]1[C@H]2C=CC[C@@H](C)[C@@H]2C(=O)N1Cc1ccccc1,,> 80 µM (inactive)
CC(=C/c1ccco1)/C=N/NC(=O)CSc1nnc(SCc2ccc(C)cc2)s1,,> 80 µM (inactive)
CNC(=O)c1cc(Nc2nnc(-c3ccc(O)cc3)c3ccccc23)ccc1OC,,> 80 µM (inactive)
COc1cccc(N2CCN(c3ncnc4c3[nH]c3ccc(F)cc34)CC2C)c1 (stereo not given),5.88,
Cn1c(=O)cc(OCCCC(=O)NCc2ccccn2)c2ccccc21,,> 80 µM (inactive)
Cn1nc(-c2ccc(N3CCOCC3)c(NS(=O)(=O)c3ccccc3)c2)c2ccccc2c1=O,,> 80 µM (inactive)
Cc1ccoc1C(=O)Nc1ccc(CC(=O)O)cc1,6.59,
CN1C(=O)CC(c2ccco2)Sc2ccccc21 (stereo not given),,> 80 µM (inactive)
C[C@H]1CCC/C=C/C2C[C@H](O)CC2[C@H](O)/C=C/C(=O)O1 (stereo not given in full),,> 80 µM (inactive)
COc1ccc(N(CC(=O)N2CCN(c3ccc(Cl)cc3)CC2)S(=O)(=O)c2c(C)n[nH]c2C)cc1,,> 80 µM (inactive)
CC1=CC(C)(C)Nc2ccc(OC(=O)c3cccnc3)cc21,5.93,
O=C(CCCN1C(=O)S/C(=C/C=C/c2ccccc2)C1=O)Nc1ccc(C(=O)O)cc1,,> 80 µM (inactive)
CCOc1ccc(/C=C2\SC(=S)N(CCC(=O)Nc3ccc(C(=O)O)cc3)C2=O)cc1,,> 80 µM (inactive)
COc1ccc(-c2csc3nc(-c4cccnc4)nc(N4CCC(C(N)=O)CC4)c23)cc1OC,4.92,
Cc1ccc(NC(=O)C2CCC(CNc3c(N4CCC(C)CC4)c(=O)c3=O)CC2)cc1F (stereo not given),,> 80 µM (inactive)
N=c1ccn(Cc2ccccc2Cl)cc1,,> 80 µM (inactive)
O=C1CCCc2c1[nH]c1ccc(CN3CCCCC3)cc21,,> 80 µM (inactive)
